In patent US20180244629A1, “Compounds And Compositions For The Treatment Of Cancer” (The Broad Institute, Inc., priority 2013, published 2018):
Where two headings read alike, the source gives them in different places.

What was measured:
COLO741 cells = experiment: COLO741 Assay (Cell Titer Glo viability); assay type: cell-based; conditions: Homo sapiens, COLO-741, Example 18; Mean ± SD (n = 3); read-out: Potency (EC50 nM) COLO741
Procedure: (§1) C0L0741 Assay Protocol. Day 0: C0L0741 cells (ECACC, C0L0741 93052621) are grown to 95% confluence in RPMI, 10% FBS/Pen/Strep/L-Glutamine. Day 1: Plate cells (1500 per well) in 40 μl culturing media using Corning 384-well plates (3570), incubate in standard TC conditions (5% CO2, 95% humidity, 37° C.) for 24 h. Day 2: Dilute each concentration of a half-log serial dilution of compound (1 mM-100 nM) 1:200 in culturing media and add […] (50 μl total volume) of that dilution to designated wells (8 replicates per concentration). The final dilution will be 1000×([…]). Day 4: Remove plate from incubator to cool for 20 minutes to room temperature. Add 40 μl of a 25% Promega Cell Titer Glo solution (diluted 1:3 with room temperature PBS) with Thermo combi or multichannel and incubate for 10 minutes. Read on Perkin-Elmer EnVision with US LUM settings for 0.1 second per well.
(§2) Compounds as shown were tested against various cells lines in vitro according to the methods described herein. Cells are plated in 384-well format in a total volume of 40 μl. Indicated compound concentrations were added 24 hrs after plating the cells. After 48 hrs cell viability was determined using Cell Titer Glo® Luminescent Cell Viability Assay.

HeLa cells = experiment: HeLa Cytotoxicity Assay (Cell Titer Glo viability); assay type: cell-based; conditions: Homo sapiens, HeLa
Procedure: HeLa Cytotoxicity Assay Protocol: Day 0: HeLa cells (ATCC, HeLa CCL-2) are grown to 95% confluence in DMEM, 10% FBS/Pen/Strep/L-Glutamine. Day 1: Plate cells (1000 per well) in 40 μl culturing media using Corning 384-well plates (3570), incubate in standard TC conditions (5% CO2, 95% humidity, 37 degrees C.) for 24 hours. Day 2: Dilute each concentration of a half-log serial dilution of compound (1 mM-100 nM) 1:200 in culturing media and add 10 μl (50 μl total volume) of that dilution to designated wells (8 replicates per concentration). The final dilution will be 1000×(1 μM-100 pM). Day 4: Remove plate from incubator to cool for 20 minutes to room temperature. Add 40 μl of a 25% Promega Cell Titer Glo solution (diluted 1:3 with room temperature PBS) with Thermo combi or multichannel and incubate for 10 minutes. Read on Perkin-Elmer EnVision with US LUM settings for 0.1 second per well.
as §2
as §2, with “Known PDE3 inhibitors” for “Compounds”, “shown below” for “shown”

H2122 cells = experiment: H2122 Assay (Cell Titer Glo viability); assay type: cell-based; conditions: Homo sapiens
Procedure: Selective toxicity in cell line panel. H2122 Assay Protocol Day 0: H2122 cells (ATCC, H2122 CCL-5985) are grown to 95% confluence in RPMI, 10% FBS/Pen/Strep/L-Glutamine. Day 1: Plate cells (750 per well) in 40 μl culturing media using Corning 384-well plates (3570), incubate in standard TC conditions (5% CO2, 95% humidity, 37 degrees C.) for 24 h. Day 2: Dilute each concentration of a half-log serial dilution of compound (1 mM-100 nM) 1:200 in culturing media and add 10 μl (50 μl total volume) of that dilution to designated wells (8 replicates per concentration). The final dilution will be 1000×([…]). Day 4: Remove plate from incubator to cool for 20 minutes to room temperature. Add 40 μl of a 25% Promega Cell Titer Glo solution (diluted 1:3 with room temperature PBS) with Thermo combi or multichannel and incubate for 10 minutes. Read on Perkin-Elmer EnVision with US LUM settings for 0.1 second per well.
as §2

A549 cells = experiment: A549 Cytotoxicity Assay (Cell Titer Glo viability); assay type: cell-based; conditions: Homo sapiens, A549
Procedure: as §1, with “A549 Cytotoxicity Assay” for “C0L0741 Assay”, “0: A549” for “0: C0L0741”, “cells (ATCC, A549 CCL-185)” for “cells (ECACC, C0L0741 93052621)”, “cells (1000” for “cells (1500”, “10 min.” for “10 minutes.”
A549 Assay Protocol. Day 0: A549 cells (ATCC) are grown in a Triple flask (NUNC) to ˜95% confluence (TrypLE Phenol Red free) and resuspended for dispensing at 25,000 cells/mL of DMEM, 10% FBS/Pen/Strep/L-Glutamine (using the TAP Compact SelecT automated cell culture system). Day 1: Plate cells at 1000 per well in 40 uL media (DMEM/10% FBS/Pen/Strep/L-Glutamine) using Corning 8867BC 384 well plates; incubate in standard TC conditions (5% CO2; 95% humidity, 37° C.) for 24 hours (Compact SelecT). Day 2: Add 100 nL compound per well at dose into 40 uL assay volume using a pin tool (CyBi Well). Pin 100 nL cytotoxic compounds, mitoxantrone (CID 4212) to positive control wells to a final concentration of 10 μM (100 nL 4 mM DMSO stock). Incubate for […] at 37° C. in Liconic incubator, 95% humidity 5% CO2. Day 4: Remove plate from incubator, cool for 15 minutes to room temperature; add 20 μL 50% Promega CellTiterGlo (diluted 1:1 with PBS, pH 7.4) with Thermo Combi. Incubate at room temperature for 5 minutes. Read plates on Perkin-Elmer EnVision with standard luminescence settings for 0.1 sec per well.
as §2
as §2, with “Known PDE3 inhibitors” for “Compounds”, “shown below” for “shown”

PDE3 = conditions: reference value; read-out: PDE3 activity (ref); cited from earlier work
H1563 = H1563 cell line viability (Cell Titer Glo); assay type: cell-based; conditions: Homo sapiens, NCI-H1563; n = 2; read-out: Potency (EC50) H1563
Procedure: as §2

[1] = Example 18, Mean ± SD (n = 3), read-out: Potency (EC50 nM) HeLa
[2] = NCI-H2122, Example 18, Mean ± SD (n = 3), read-out: Potency (EC50 nM) H2122
[3] = known PDE3 inhibitors, Mean (n = 3), read-out: Potency (EC50 nM) HeLa
[4] = known PDE3 inhibitors, Mean (n = 3), read-out: Potency (EC50 nM) A549
[5] = n = 2, read-out: Potency (EC50) A549
[6] = n = 2, read-out: Potency (EC50) HeLa
[7] = NCI-H2122, n = 2, read-out: Potency (EC50) H2122

EC50 (COLO741 cells)	EC50 (H2122 cells; [2])	EC50 (H1563)	SMILES	EC50 (A549 cells; [5])	further results
3.1 ± 0.6 nM	3.2 ± 1.1 nM		C[C@@H]1CC(=O)NN=C1c1ccc(N2CCOCC2)c(F)c1 [drawing 217]		EC50 (HeLa cells; [1]): 1.6 ± 0.2 nM
		3 nM	CC1CC(=O)NN=C1c1ccc(N2CCOCC2)c([N+](=O)[O-])c1 (centres unmarked)	> 10000 nM	
		> 10000 nM	CC1CC(=O)NN=C1c1ccc(N)c([N+](=O)[O-])c1 (centres unmarked)	> 10000 nM	
		3 nM	CC1CC(=O)NN=C1c1ccc(N2CCCCC2)c([N+](=O)[O-])c1 (centres unmarked)	> 10000 nM	EC50 (HeLa cells; [6]): 1 nM; EC50 (H2122 cells; [7]): 1 nM
7.8 ± 0.3 nM	12.3 ± 3.4 nM		CC(=O)Nc1ccc(C2=NNC(=O)C[C@H]2C)cc1[N+](=O)[O-] [drawing 221]		EC50 (HeLa cells; [1]): 4.9 ± 1.1 nM
		12 nM	CCN(CC)c1ccc(C2=NNC(=O)CC2C)cc1[N+](=O)[O-] (centres unmarked) [drawing 226]	> 10000 nM	EC50 (HeLa cells; [6]): 4 nM; EC50 (H2122 cells; [7]): 12 nM
		> 10000 nM	COc1ccc(CC(=O)N2CCN(c3ccc(C4=NNC(=O)CC4C)cc3[N+](=O)[O-])CC2)cc1 (centres unmarked)	> 10000 nM	
12 ± 1.3 nM	13.7 ± 2.8 nM		CCN(CC)c1ccc(C2=NNC(=O)CC2C)cc1[N+](=O)[O-] (centres unmarked) [drawing 215]		

Continued, compound first:

SMILES	EC50 (COLO741 cells)	EC50 (H2122 cells; [2])	EC50 (H1563)	EC50 (A549 cells; [5])	further results
C[C@@H]1CC(=O)NN=C1c1ccc(C2CCCCC2)cc1 [drawing 216]	11.4 ± 0.3 nM	29.6 ± 8.7 nM			EC50 (HeLa cells; [1]): 7.7 ± 1.3 nM
CCN(CC)c1ccc(C2=NNC(=O)CC2C)cc1[N+](=O)[O-] (centres unmarked) [drawing 137]					EC50 (HeLa cells; 48 h, Cell Titer Glo, read-out: EC50 HeLa): 5.5 to 8.7 nM; EC50 (A549 cells; 48 hrs, Cell Titer Glo, read-out: EC50 A549): > 10000 nM; EC50 (H2122 cells; NCI-H2122, 48 h, 48 hrs, Cell Titer Glo, read-out: EC50 H2122): 10.3 to 15.6 nM
O=C1CN2Cc3c(ccc(Cl)c3Cl)NC2=N1	12.2 ± 0.9 nM	17.4 ± 3.5 nM			EC50 (HeLa cells; [1]): 6.8 ± 0.9 nM
O=C1CN2Cc3c(ccc(Cl)c3Cl)N=C2N1 [Anagrelide, reference compound]					IC50 (PDE3): 36 nM; EC50 (HeLa cells; [3]): 8.2 nM; EC50 (A549 cells; [4]): > 10000 nM
C[C@@H]1CC(=O)NN=C1c1ccc(F)c(F)c1 [drawing 220]	33.2 ± 14.1 nM	47.7 ± 14.1 nM			EC50 (HeLa cells; [1]): 22.3 ± 4.5 nM
C[C@@H]1CC(=O)NN=C1c1ccc(N)cc1			> 10000 nM	> 10000 nM	
O=C1CCC(c2ccc(-n3ccnc3)cc2)=NN1 [Imazodan, reference compound]					IC50 (PDE3): 1300 nM; EC50 (HeLa cells; [3]): 720 nM; EC50 (A549 cells; [4]): > 10000 nM
COc1cc(-c2ccc(=O)[nH]n2)ccc1OC(F)F [Zardaverine, reference compound]					IC50 (PDE3): 2500 nM; EC50 (HeLa cells; [3]): 56 nM; EC50 (A549 cells; [4]): > 10000 nM
CC1CC(=O)NN=C1c1ccc(N)c(N)c1 (centres unmarked)			> 10000 nM	> 10000 nM	
